Measured values from patent US20220267329A1, “Dihydro-Spiro[Indoline-3:1'-Isoquinolin]-2-Ones and Their Analogues and Derivatives and Methods of Treating Cancer and Other Diseases” (The University of Buea, priority 2019, published 2022).

Key:
[1] = test system: EMT6 breast cancer cell line; experiment: Antiproliferative screening on EMT6 cancer cells; format: cell-based; conditions: for activity at 100 µM: Mus musculus, EMT6, no ligand = 100, read-out: EMT6 cell proliferation (%); for EMT6 cell proliferation (%) / inhibition of EMT6 cell proliferation: 100 μM; for EMT6 cell proliferation (%): no ligand = 100
Protocol: Representative compounds were screened tested for antiproliferative activity on the EMT6 breast cancer cell line. Screening was carried out according to published procedures (Zeng et al., 2014). In this screen, compounds were tested at 100 μM concentration.

[2] = target: sphingosine-1-phosphate receptor 1 (S1PR1) (Homo sapiens, UniProt P21453); experiment: Radioligand binding to sphingosine-1-phosphate receptor 1; conditions: test compound 100 nM, 0.2 nM radioligand; for inhibition at 0.1 µM: read-out: % INHIBITION of binding to the SIP1 Receptor
sphingosine-1-phosphate receptor 1 (S1PR1), sequence (P21453 whole entry, species assumed): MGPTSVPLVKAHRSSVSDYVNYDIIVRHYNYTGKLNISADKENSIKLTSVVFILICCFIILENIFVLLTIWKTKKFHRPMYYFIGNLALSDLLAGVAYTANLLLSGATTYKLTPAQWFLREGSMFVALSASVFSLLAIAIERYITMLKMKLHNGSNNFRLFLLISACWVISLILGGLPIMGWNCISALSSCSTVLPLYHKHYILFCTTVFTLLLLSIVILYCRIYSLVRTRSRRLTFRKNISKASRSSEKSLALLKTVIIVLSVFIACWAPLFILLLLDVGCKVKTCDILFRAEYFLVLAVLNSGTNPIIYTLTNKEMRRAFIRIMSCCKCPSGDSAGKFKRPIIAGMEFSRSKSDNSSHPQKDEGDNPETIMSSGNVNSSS
Protocol: The binding of a representative group of compounds of this invention to sphingosine-1-phosphate receptor 1 (S1PR1) was determined by a published procedure (Rosenberg et al., 2016). In this assay, the test compound at 100 nM concentration was incubated with 0.2 nM radioligand. Active compounds or “hits” are defined as compounds that inhibit radioligand binding by 50% or more. […] This finding is significant because it establishes the 3′,4′-dihydro-2′H-[…]-2-one hybrid scaffold as an entirely new class of ligands for the sphingosine-1-phosphate receptors.

[3] = test system: renal cancer cell lines; experiment: NCI-60 screen, renal cell lines; format: cell-based, human; conditions: Homo sapiens, NCI-60 preliminary screening, read-out: Percent (%) Inhibition of Cancer Cell Line, Renal Cell
Protocol: (§1) Screening for Anticancer Activity—The NCI-60 panel: Representative compounds of the invention were subjected to anticancer testing in the National Cancer Institute (NCI) 60 screen. In this screen compounds are tested on a panel of sixty human cancer cell lines chosen from the following cancers: leukemia, nonsmall cell lung cancer (NSCLC), colon, melanoma, central nervous system (CNS), ovarian, renal, prostate and breast. The assay method is found on the NCI website (dtp.cancer.gov/discovery_development/nci-60/methodology.htm). In the NCI-60 assay, test compounds undergo preliminary screening at 10 μM concentration. The data is reported as percent growth relative to “no drug” control; therefore values between 0 and 100% denote growth inhibition.

[4] = test system: nonsmall cell lung cancer (NSCLC) cell lines; experiment: NCI-60 screen, NSCLC cell lines; format: cell-based, human; conditions: Homo sapiens, NCI-60 preliminary screening, read-out: Percent (%) Inhibition of Cancer Cell Line, NSCLC
Protocol: as §1

[5] = test system: leukemia cell lines; experiment: NCI-60 screen, leukemia cell lines; format: cell-based; conditions: Homo sapiens, NCI-60 preliminary screening, read-out: Percent (%) Inhibition of Cancer Cell Line, Leukemia
Protocol: as §1

Row | Compound | activity at 100 µM [1] | inhibition at 0.1 µM [2] | further results
1 | O=C1Nc2c(Br)cc(Br)cc2C12NCCc1cccc(O)c12 (stereo not drawn) [Compound 1c, 5,7-Dibromo-8′-hydroxy-3′,4′-dihydro-2′H-spiro[indoline-3,1′-isoquinolin]-2-one] | 87.6% |  | 
2 | O=C1N(Cc2ccc(Br)cc2)c2ccccc2C12NCCc1cccc(O)c12 (stereo not drawn) [Compound 1f, 1-(4-bromobenzyl)-8′-hydroxy-3′,4′-dihydro-2′H-spiro[indoline-3,1′-isoquinolin]-2-one] | 103% | ≥ 50% | 
3 | Cc1ccc(CN2C(=O)C3(NCCc4cccc(O)c43)c3ccccc32)cc1 (stereo not drawn) [Compound 1h, 8′-Hydroxy-1-(4-methylbenzyl)-3′,4′-dihydro-2′H-spiro[indoline-3,1′-isoquinolin]-2-one] | 127% | ≥ 50% | 
4 | O=C1N(Cc2ccccc2[N+](=O)[O-])c2ccccc2C12NCCc1cccc(O)c12 (stereo not drawn) [Compound 1i, 8-Hydroxy-1-(2-nitrobenzyl)-3′,4′-dihydro-2′H-spiro[indoline-3,1′-isoquinolin]-2-one] |  |  | % INHIBITION of binding to the SIP1 Receptor [2]: 35.4%; EMT6 cell proliferation (%) [1]: 108.20%
5 | O=C1N(Cc2ccc(F)cc2)c2ccc(Cl)cc2C12NCCc1cccc(O)c12 (stereo not drawn) [Compound 1k, 5-Chloro-1-(4-fluorobenzyl)-8′-hydroxy-3′,4′-dihydro-2′H-spiro[indoline-3,1′-isoquinolin]-2-one] |  | ≥ 50% | 
6 | O=C1N(Cc2ccc(Cl)cc2)c2ccc(Cl)cc2C12NCCc1cccc(O)c12 (stereo not drawn) [Compound 1l, 5-Chloro-1-(4-chlorobenzyl)-8′-hydroxy-3′,4′-dihydro-2′H-spiro[indoline-3,1′-isoquinolin]-2-one] |  | ≥ 50% | 
7 | O=C1Nc2ccc(Cl)cc2C12NCCc1cc(O)ccc12 (stereo not drawn) [Compound 2b, 5-Chloro-6′-hydroxy-3′,4′-dihydro-2′H-spiro[indoline-3,1′-isoquinolin]-2-one] | 109% |  | inhibition at 10 µM [3]: 17%; inhibition at 10 µM [4]: 17%
8 | O=C1N(Cc2ccc(F)cc2)c2ccccc2C12NCCc1cc(O)ccc12 (stereo not drawn) [Compound 2d, 1-(4-Fluorobenzyl)-6′-hydroxy-3′,4′-dihydro-2′H-spiro[indolline-3,1′-isoquinolin]-2-one] |  |  | EMT6 cell proliferation (%) [1]: 123.61%
9 | O=C1N(Cc2ccc(Cl)cc2)c2ccccc2C12NCCc1cc(O)ccc12 (stereo not drawn) [Compound 2e, 1-(4-Chlorobenzyl)-6′-hydroxy-3′,4′-dihydro-2′H-spiro[indoline-3,1′-isoquinolin]-2-one] | 72.2% |  | 
10 | O=C1N(Cc2ccc(Br)cc2)c2ccccc2C12NCCc1cc(O)ccc12 (stereo not drawn) [Compound 2f, 1-(4-bromobenzyl)-6′-hydroxy-3′,4′-dihydro-2′H-spiro[indoline-3,1′-isoquinolin]-2-one] | 41.4% |  | inhibition of EMT6 cell proliferation [1]: as much as fifty percent
11 | Cc1ccc(CN2C(=O)C3(NCCc4cc(O)ccc43)c3ccccc32)cc1 (stereo not drawn) [Compound 2h, 6′-Hydroxy-1-(4-methylbenzyl)-3′,4′-dihydro-2′H-spiro[indoline-3,1′-isoquinolin]-2-one] | 132% |  | inhibition at 10 µM [3]: 25%; inhibition at 10 µM [5]: 24%; inhibition at 10 µM [4]: 32%
12 | O=C1N(Cc2ccccc2[N+](=O)[O-])c2ccccc2C12NCCc1cc(O)ccc12 (stereo not drawn) [Compound 2i, 6′-Hydroxy-1-(2-nitrobenzyl)-3′,4′-dihydro-2′H-spiro[indoline-3,1′-isoquinolin]-2-one] | 98.5% |  | 
13 | O=C1N(Cc2ccc(F)cc2)c2ccc(Cl)cc2C12NCCc1cc(O)ccc12 (stereo not drawn) [Compound 2k, 5-Chloro-1-(4-fluorobenzyl)-6′-hydroxy-3′,4′-dihydro-2′H-spiro[indoline-3,1′-isoquinolin]-2-one] | 131% |  | 
14 | O=C1N(Cc2ccc(Cl)cc2)c2ccc(Cl)cc2C12NCCc1cc(O)ccc12 (stereo not drawn) [Compound 2l, 5-Chloro-1-(4-chlorobenzyl)-6′-hydroxy-3′,4′-dihydro-2′H-spiro[indoline-3,1′-isoquinolin]-2-one] | 37.2% | ≥ 50% | inhibition of EMT6 cell proliferation [1]: as much as fifty percent
15 | Cc1ccc(CN2C(=O)C3(NCCc4cc(O)ccc43)c3cc(Cl)ccc32)cc1 (stereo not drawn) [Compound 2m, 5-Chloro-6′-hydroxy-1-(4-methylbenzyl)-3′,4′-dihydro-2′ spiro[indoline-3,1′-isoquinolin]-2-one] |  |  | % INHIBITION of binding to the SIP1 Receptor [2]: 52.4%; EMT6 cell proliferation (%) [1]: 72.26%
16 | O=C1Nc2ccccc2C12NCCc1cc(O)c(O)cc12 (stereo not drawn) [Compound 3a, 6′,7′-Dihydroxy-3′,4′-dihydro-2′H-spiro[indoline-3,1′-isoquinolin]-2-one] | 91.2% |  | 
17 | O=C1Nc2ccc(Cl)cc2C12NCCc1cc(O)c(O)cc12 (stereo not drawn) [Compound 3b, 5-Chloro-6′,7′-dibydroxy-3′,4′-dihydro-2′H-spiro[indoline-3,1′-isoquinolin]-2-one] |  |  | % INHIBITION of binding to the SIP1 Receptor [2]: 34.2%
18 | COc1ccc2c(c1)CCNC21C(=O)Nc2ccc(Cl)cc21 (stereo not drawn) [Compound 4b, 5-Chloro-6′-methoxy-3′,4′-dihydro-2′H-spiro[indoline-3,1′-isoquinolin]-2-one] | 142% |  | inhibition at 10 µM [3]: 23 to 30%
19 | COc1ccc2c(c1)CCNC21C(=O)Nc2c(Br)cc(Br)cc21 (stereo not drawn) [Compound 4c, 5,7-Dibromo-6′-methoxy-3′,4′-dihydro-2′H-spiro[indoline-3,1′-isoquinolin]-2-one] |  | 36.3% | 
20 | COc1ccc2c(c1)CCNC21C(=O)N(Cc2ccc(F)cc2)c2ccccc21 (stereo not drawn) [Compound 4d, 6′-Methoxy-1-(4-fluorobenzyl)-3′,4′-dihydro-2′H-spiro[indoline-3,1′-isoquinolin]-2-one] |  | 41.5% | 
21 | COc1cc2c(cc1OC)C1(NCC2)C(=O)Nc2ccccc21 (stereo not drawn) [Compound 5a, 6′,7′-Dimethoxy-3′,4′-dihydro-2′H-spiro[indoline-3,1′-isoquinolin]-2-one] |  | 39.1% | inhibition at 10 µM [3]: 25 to 37%
22 | COc1cc2c(cc1OC)C1(NCC2)C(=O)N(Cc2ccc(F)cc2)c2ccccc21 (stereo not drawn) [Compound 5d, 1-(4-fluorobenzyl)-6′,7′-dimethoxy-3′,4′-dihydro-2′H-spiro[indoline-3,1′-isoquinolin]-2-one] |  | 40% | 
23 | COc1cc2c(c(OC)c1OC)C1(NCC2)C(=O)Nc2ccccc21 (stereo not drawn) [Compound 6a, 6′,7′,8′-Trimethoxy-3′,4′-dihydro-2′H-spiro[indoline-3,1′-isoquinolin]-2-one] |  | 38.4% | inhibition at 10 µM [3]: 22%; inhibition at 10 µM [5]: 22%
24 | COc1cc2c(c(OC)c1OC)C1(NCC2)C(=O)Nc2c(Br)cc(Br)cc21 (stereo not drawn) [Compound 6c, 5,7-Dibromo-6′,7′,8′-trimethoxy-3′,4′-dihydro-2′H-spiro[indoline-3,1′-isoquinolin]-2-one] |  | 36.7% | 
25 | COc1cc2c(c(OC)c1OC)C1(NCC2)C(=O)N(Cc2ccc(F)cc2)c2ccccc21 (stereo not drawn) [Compound 6d, 1-(4-Fluorobenzyl)-6′,7′,8′-trimethoxy-3′,4′-dihydro-2′H-spiro[indoline-3,1′-isoquinolin]-2-one] |  | ≥ 50% | 
26 | COc1cc2c(c(OC)c1OC)C1(NCC2)C(=O)N(Cc2ccc(C)cc2)c2ccccc21 (stereo not drawn) [Compound 6e, 6′,7′,8′-Trimethoxy-1-(4-methylbenzyl)-3′,4′-dihydro-2′H-spiro[indoline-3,1′-isoquinolin]-2-one] |  | 31.3% | 
